# Assays:
# HT29 cells [1] = experiment: HT29 cell proliferation, MTT assay; format: cell-based; details: inhibitor alone
# Description: HT29 cells were grown to confluence in McCoy's medium and harvested and plated 2,500 per well in a 96-well plate. Subconfluent cells were growth arrested in 0.1% FBS with or without AR inhibitor sorbinil or zopolrestat (20 μM). After 24 hours, EGF (5 ng/ml) or BFGF (10 ng/ml) was added to the medium and the cells were incubated for another 24 hours. Cells incubated with the AR inhibitors alone served as control. Cell viability was determined by an MTT assay.
# HT29 cells [2] = experiment: PGE2 assay in HT29 cells; format: cell-based; details: inhibitor alone
# Description: (§1) Caco-2 cells were plated in 6 well plates at a density of 2×10^5 cells/well. After 24 hours, the medium was replaced with fresh medium containing 0.1% serum with or without, sorbinil (20 μM) followed by treatment with either 10 ng/ml BFGF or PDGF, for another 24 h. HT29 cells were plated in 6 well plate at a density of 2×10^5 cells/well. After 24 hours, medium was replaced with serum-free medium with or without, sorbinil or zopolrestat (20 μM) followed by treatment with either EGF (5 ng/ml) or BFGF (10 ng/ml) for another 24 h. The medium from each cell lines was collected from each well and analyzed for PGE2 by using an Enzyme Immuno Assay kit according to the manufacturer's instructions (Cayman Chemical Co., Inc.).
# Briefly, 50 μl of diluted standard/sample were pipetted into a pre-coated goat polyclonal anti-mouse IgG 96-well plate. Aliquots (50 μl) of a PGE2 monoclonal antibody and PGE2 acetylcholine esterase (AchE) conjugate, (PGE2 tracer) were added to each well and allowed to incubate at 4° C. for 24 h. After incubation, the wells were washed five times with wash buffer containing 0.05% Tween-20, followed by the addition of 200 μl of Ellman's reagent containing acetylthiocholine and 5,5′-dithio-bis-(2-nitrobenzoic acid). Samples were read after 60 min at 412 nm with an ELISA reader. […]
# A549 xenografts = A549 xenografts in nude mice; format: in vivo, mouse
# Description: The levels of ROS in sections of A549 xenografts was determined using dihydroethidium (Het; Molecular Probes, Eugene, Oreg.). The Het dye gives red fluorescence when oxidized to EtBr in the presence of ROS such as O2. Serial sections ([…]) of para-formaldehyde fixed xenografts were deparafinized and rehydrated and incubated with Het dye (5 μM in PBS) for 30 min at 37° C. followed by acquisition of images using a fluorescence microscope 200× magnification.
# Nine mice (20 weeks old) were divided into three groups of three animals and were treated with PBS, scrambled AR siRNA, and AR-siRNA, respectively. All nine animals were injected with 2×10^6 A549 human lung carcinoma cell suspensions in 100 μl PBS s.c. Animals were examined daily for signs of tumor growth. Treatment was given two times (day 1 and day 14) when the tumor surface area approximately 45 mm^2 (day 25). Treatment consisted of 200 μg AR-siRNA in 100 μl PBS. Control groups were treated with 200 μg/100 μl scrambled siRNA or diluent (PBS) alone. For the determination of effect of AR inhibitor, animals were fed with zopolrestat (40 mg/kg body weight) in the diet. Tumors were measured in two dimensions using calipers.
# Serial sections ([…]) of para-formaldehyde fixed xenografts were deparafenized and rehydrated and incubated with peptide specific AR antibodies and developed using DakoCytomation LSAB+System-HRP kit. The intensity of staining was observed under light microscope with 200× magnification.
# The results obtained from in vitro studies were confirmed by in vivo nude mice model bearing human lung carcinoma A549 cells. A549 (2×10^6) cells were implanted s.c. and allowed to grow in nu/nu nude mice to ˜45 mm^2 over a period of 25 days. Animals were grouped into control and experimental groups. Control group were fed with regular diet and experimental group was fed with AR inhibitor, Zopolrestat (after 10 days dose increased from 20 mg to 40 mg/kg/body weight) for until end of the experiment. Tumor growth was measured every two days using calipers. The photographs of animals were taken at days 1, 14, and 37 (FIGS. 20A-20B).
# Caco-2 cells [3] = experiment: PGE2 assay in Caco-2 cells; format: cell-based, human; details: preincubation with inhibitor 30 min, BFGF or PDGF 24 h
# Description: as §1
# Briefly, 50 μl of diluted standard/sample were pipetted into a pre-coated goat polyclonal anti-mouse IgG 96-well plate. Aliquots (50 μl) of a PGE2 monoclonal antibody and PGE2 acetylcholine esterase (AchE) conjugate, (PGE2 tracer) were added to each well and allowed to incubate at 4° C. for 24 h. After incubation, the wells were washed five times with wash buffer containing 0.05% Tween-20, followed by the addition of 200 μl of Ellman's reagent containing acetylthiocholine and 5,5′-dithio-bis-(2-nitrobenzoic acid). Samples were read after 60 min at 412 nm with an ELISA reader. In this procedure the intensity of yellow color, is proportional to the amount of PGE2 tracer bound to the well and is inversely proportional to the amount of free PGE2 present in the well during incubation.
# RAW264.7 macrophages = experiment: LPS- and lipid aldehyde-induced signaling in RAW264.7 macrophages; format: cell-based
# Description: At the indicated times, cells were harvested for measurement of HNE (FIG. 5A), protein-HNE adducts (FIG. 5B), NF-kB (FIG. 5C), and TNF-a and IL-6 (FIG. 5D) as described in the methods. Cells were growth arrested as described above or transfected with control or AR siRNA oligonucleotides, incubated with GS-HNE-ester, or GS-DHN-ester (1 mM), and harvested for determination of NF-kB (FIG. 5E), membrane-bound total PKC (FIG. 5F).
# To determine if GS-DHN serves as a cellular sensor of ROS-induced insults, its effects on phosphorylation events upstream of IKK/NF-κB activation in RAW264.7 macrophages was examined.
# SW480 xenografts = test system: SW480 xenografts; parameters: tumor progression: dose or concentration left out as unconfirmed
# Description: Nine 20-weeks-old athymic nu/nu nude mice were divided into three groups of 3 animals (Group 1: treated with PBS; Group 2: treated with scrambled siRNA and Group 3: treated with aldose-reductase siRNA). An aliquot of 2×10^6 SW480 human colon adenocarcinoma cell suspensions in 100 μl PBS was injected subcutaneously into one flank of each nu/nu nude mouse. Animals were examined daily for signs of tumor growth. Treatment was administered when the tumor surface area exceeded 45 mm^2, i.e., day 25. Treatment consisted of 200 mg aldose-reductase siRNA in 100 ml PBS administered intraperitoneally. Control groups were treated with 200 mg/100 ml scrambled siRNA, or diluent (PBS) alone. Mice were treated on days 1 and 14. Tumors were measured in two dimensions using calipers over 40 days.
# rat VSMC cells = experiment: High glucose-induced TNF-a production in VSMC; format: cell-based; details: for high glucose-induced TNF-a secretion: preincubated 1 h, then 19.5 mM glucose, apocyanin 25 mM, calphostin C 0.2 mM, N-acetyl cysteine 10 mM, sorbinil or tolrestat 10 mM each, or AR antisense ablated
# Description: Growth-arrested VSMC in 5.5 mM glucose (NG) were preincubated for 1 h without or with apocyanin (25 mM), D609 (100 mM), calphostin C (0.2 mM), N-acetyl cysteine (10 mM) and NF-kB inhibitor (18 mM) (FIG. 4A) and without or with sorbinil or tolrestat (10 mM each) (FIG. 4B) followed by the addition of glucose (19.5 mM) and incubation for the indicated times. AR antisense ablated VSMC were incubated with HG for the indicated times (FIG. 4C).
# Growth-arrested VSMC in 5.5 mM glucose (NG) were preincubated for 1 h without or with apocyanin (25 mM), D609 (100 mM), calphostin C (0.2 mM), N-acetyl cysteine (10 mM) and NF-kB inhibitor (18 mM) respectively, followed by the addition of 19.5 mM glucose, after which the cells were incubated for 12 and 24 hrs.
# A549 cells [4] = experiment: A549 cell proliferation, MTT assay; format: cell-based; details: Homo sapiens, 24 hrs
# Description: A549 cells were grown to confluence in Ham's F12K medium containing 10% FBS and harvested, and plated at 5000 cells per well in a 96-well plate. After 24 hrs A549 cells were treated with or without AR inhibitor sorbinil or tolrestat with various concentrations for another 24 hrs. Cells incubated without AR inhibitors served as control. Cell viability was determined by and MTT assay.
# A549 cells [5] = experiment: Western blot of Cox-2 and iNOS in A549 cells; format: cell-based, human; details: concentration dependent
# Description: (§2) To examine expression of any of Cox-1, Cox-2, phospho-PKC-2, GAPDH, E2F1, Cyclin D1, Cyclin E, and iNOS proteins, Western blot analyses were carried by known methods (15). Equal amounts of protein from cell extracts were subjected to 12% SDS-PAGE followed by transfer of proteins to nitrocellulose filters, probing with the indicated antibodies, and the antigen-antibody complex was detected by enhanced chemiluminescence (Pierce, Piscataway, N.J., USA).
# A549 cells [6] = experiment: Western blot of cell cycle regulatory proteins in A549 cells; format: cell-based, human; details: various concentrations
# Description: as §2
# Caco-2 cells [7] = experiment: Reactive oxygen species in Caco-2 cells (DCFH-DA); format: cell-based, human; details: 20 μM, FGF or PDGF 10 ng/ml 60 min
# Description: Caco-2 cells were plated in a 24-well plate at a density of 1.5×10^4 cells/well in DMEM and then serum-starved at 60-70% confluence in the absence and presence of 20 μM sorbinil or tolrestat for overnight in phenol red-free DMEM supplemented with 0.1% FBS. Cells were then pre-incubated for 30 min with the ROS-sensitive fluorophore 2′,7′-dichlorofluorescein diacetate (DCFH-DA), which is taken up and oxidized to the fluorescent dichlorofluorescein by intracellular ROS. After incubation with DCFH-DA, the cells were exposed to FGF or PDGF 10 ng/ml for 60 min and fluorescence was measured with a CytoFluorII fluorescence plate reader (PerSeptive Biosystems, Inc., Framingham, Mass.) at excitation of 485 nm and emission of 528 nm.
# aldose reductase = aldose reductase (Homo sapiens, UniProt P15121); details: cited from earlier work
# [8] = compared to control and scrambled siRNA
molecule,measurement,setting,value
"O=C(O)Cc1nn(Cc2nc3cc(C(F)(F)F)ccc3s2)c(=O)c2ccccc12 [zopolrestat, 3,4-dihydro-4-oxo-3-[[5-(trifluoromethyl)-2-benzothiazolyl]methyl]-1-phthalazineacetic acid]",HT29 cells proliferation,HT29 cells [1],did not cause any effect
same,constitutive levels of PGE2,HT29 cells [2],did not inhibit
same,normal weight gain of animals,A549 xenografts; zopolrestat in the diet,None of the treatments interfered
same,tumor progression,"A549 xenografts; zopolrestat in the diet, 20 mg to 40 mg/kg/body weight",completely arrested
CC(=O)N[C@@H](CS)C(=O)O [N-acetylcysteine],growth factor-induced production of PGE2,Caco-2 cells [3],attenuated
AR-siRNA: AR-siRNA (5′-AATCGGTGTCTCCAACTTCAA-3′; SEQ ID NO: 1) synthesized by Dharmacon Research (chemistry not given here),ability of GS-DHN to activate NF-κB,RAW264.7 macrophages,had no effect
same,effects of HNE/GS-HNE on IKK-a/b phosphorylation and NF-kB translocation,RAW264.7 macrophages,significantly blunted
same,AR protein expression in xenograft sections,A549 xenografts; [8],significantly prevention
same,ROS production in xenograft sections (HEt red fluorescence),A549 xenografts; [8],significantly reduced
same,progression of tumor growth,A549 xenografts; i.p. 200 μg AR-siRNA in 100 μl PBS on days 1 and 14,inhibited completely
same,tumor progression,"SW480 xenografts; intraperitoneally, days 1 and 14",completely arrested
same,normal weight gain of animals,"SW480 xenografts; mouse, in vivo",without interfering
"glutathionyl-1,4-dihydroxynonene [GS-DHN]",increase of protein kinase C (PKC) activity after GS-DHN challenge,RAW264.7 macrophages; within 60 min,~2.5 fold
COc1ccc2c(C(=S)N(C)CC(=O)O)cccc2c1C(F)(F)F [tolrestat],basal levels of TNF-a,"rat VSMC cells; media containing 5.5 mM glucose, mannitol, or 3-OMG",did not affect
same,high glucose-induced TNF-a secretion,rat VSMC cells,prevents
same,inhibition at 100 µM,A549 cells [4],> 75%
same,Cox-2 and iNOS expression,A549 cells [5],inhibit
same,"E2F-1, Cyclin E and Cyclin D1 expression",A549 cells [6],significant inhibition
same,growth factor-induced increase in ROS,Caco-2 cells [7],inhibited
"N[C@@H](CCC(=O)N[C@@H](CSC(CC(=O)O)C(=O)O)C(=O)NCC(=O)O)C(=O)O (stereo partly drawn) [DCEG, S-(1,2-dicarboxyethyl) glutathione, γ-glutamyl-S-(1,2-dicarboxyethyl)cysteinylglycine]",inhibition of AR-catalyzed reaction of glutathionyl-propanal,aldose reductase,competitive inhibitor
same,inhibition of aldehyde reduction by aldose reductase,aldose reductase,competitive inhibitor
calphostin C,high glucose-induced TNF-a secretion,rat VSMC cells,markedly decreased
same,growth factor-induced production of PGE2,Caco-2 cells [3],attenuated
